Legend:
KDHba = assay type: biochemical, Burkholderia ambifaria; settings: aldehyde oxidation
PadA = molecular target: T1, PadA (Escherichia coli, UniProt P80668); assay: in vitro enzyme kinetics; assay type: biochemical; settings: aldehyde oxidation
T1 sequence (P80668 1-499): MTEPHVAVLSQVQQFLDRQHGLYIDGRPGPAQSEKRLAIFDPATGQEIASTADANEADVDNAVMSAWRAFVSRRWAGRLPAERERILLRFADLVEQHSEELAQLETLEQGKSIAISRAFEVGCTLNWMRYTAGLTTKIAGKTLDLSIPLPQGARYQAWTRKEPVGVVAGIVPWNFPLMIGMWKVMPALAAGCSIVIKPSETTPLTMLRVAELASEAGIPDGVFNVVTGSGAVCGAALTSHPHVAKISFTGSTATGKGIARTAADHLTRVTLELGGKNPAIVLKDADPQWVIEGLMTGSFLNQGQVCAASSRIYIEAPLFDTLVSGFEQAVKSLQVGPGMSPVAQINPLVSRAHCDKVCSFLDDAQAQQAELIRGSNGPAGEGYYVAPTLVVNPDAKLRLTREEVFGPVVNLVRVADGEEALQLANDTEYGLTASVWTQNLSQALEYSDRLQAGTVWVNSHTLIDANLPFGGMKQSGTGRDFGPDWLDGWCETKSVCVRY

Row | SMILES | Km (KDHba) | Km (PadA)
1 | CC(C)C=O [isobutanal] | 34500 µM | –
2 | CC(C)CCC=O [isohexanal] | 520 µM | –
3 | CC(C)CC=O [isopentanal] | – | 1950 µM

From article PMC3301443 (Scientific Reports, 2012)
